Kd data for one compound are collected here from publication PMC6462819 (Science immunology, 2018).

Usually Kd stands for the concentration at which binding is half-saturated.

This experiment deals with T1, recombinant GSDMD (human, full-length) (Homo sapiens, UniProt P57764).
T1 sequence (P57764 1-484): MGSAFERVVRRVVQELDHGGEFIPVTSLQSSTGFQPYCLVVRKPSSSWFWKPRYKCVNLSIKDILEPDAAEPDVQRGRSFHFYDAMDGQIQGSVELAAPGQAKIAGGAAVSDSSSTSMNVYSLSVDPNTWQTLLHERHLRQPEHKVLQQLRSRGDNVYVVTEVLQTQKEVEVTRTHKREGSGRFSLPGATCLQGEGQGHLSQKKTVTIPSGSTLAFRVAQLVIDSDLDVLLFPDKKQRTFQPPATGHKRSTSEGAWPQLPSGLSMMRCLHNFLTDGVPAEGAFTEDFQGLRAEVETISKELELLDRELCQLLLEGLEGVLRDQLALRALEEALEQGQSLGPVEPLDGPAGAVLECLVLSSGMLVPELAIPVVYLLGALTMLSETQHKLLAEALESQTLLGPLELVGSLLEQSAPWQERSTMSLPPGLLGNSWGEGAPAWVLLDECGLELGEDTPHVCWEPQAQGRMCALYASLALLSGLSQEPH
Put plainly: surface plasmon resonance, Biacore T200. It counts as binding. On the technique in general: Surface plasmon resonance follows binding to a sensor surface in real time, without labels.

As for `COc1nccnc1NS(=O)(=O)c1ccc(NC(=O)/C=C/c2ccc([N+](=O)[O-])s2)cc1` [necrosulfonamide], the dissociation constant (Kd) came to 32 ± 3.8 µM.
